This note sets out measurements from PMC5599605, “Production and Characteristics of a Novel Xylose- and Alkali-tolerant GH 43 β-xylosidase from Penicillium oxalicum for Promoting Hemicellulose Degradation” (Scientific Reports, 2017).

The target in data set [1] is T1, Xyl43 (Penicillium oxalicum, UniProt S7ZRR2).
T1 construct: gene PDE_06306; full-length, 348 residues, no native signal peptide; alpha-factor secretion signal, C-terminal His6 tag kept; Pichia pastoris X-33 (pPICZalphaA)
In words: pNPX hydrolysis, residual activity. It is filed as biochemical. The conditions noted are these: pNPX 1 mg/ml, pH 7.0, 50 °C, 30 min; D or L not stated.

The target in data set [2] is T1, Xyl43. In words: pNPX hydrolysis, Dixon plot. The conditions noted are these: substrate pNPX 0.5 and 1 mg/ml, pH 7.0, 50 °C; end product; described as uncompetitive; Table 1 prints 28.9. The data set is classed as biochemical.
Substrate in data set [3]: O=[N+]([O-])c1ccc(O[C@@H]2OC[C@@H](O)[C@H](O)[C@H]2O)cc1
In words: p-nitrophenol release, Lineweaver-Burk plot. It is filed as biochemical, Penicillium oxalicum. The conditions noted are these: pH 7.0, 50 °C, 5 min, no xylose.

Regarding `OC1OC[C@H](O)[C@H](O)[C@H]1O` (stereo partly drawn) [arabinose], the “% of initial activity at 20 mM” value at Xyl43 [1] is listed as 88.7%. For orientation: Ki means a measure of affinity in units of concentration, obtained from inhibition or displacement. A low value points to tighter binding. Take `OC1OC[C@@H](O)[C@H](O)[C@H]1O` (stereo partly drawn) [xylose]: the affinity at Xyl43 [2] corresponds to a Ki of 28.1 mM.

B1: Xyl43 (Penicillium oxalicum 114-2) (protein)
chain: MSSSTSSAPRPDPKPLVTHLYTADPSAHVFNNKIYIYPSHDRETDIAFNDNGDQYDMTDYHVFSMDAIDGPVTDSGVVLSAADVPWVSKQMWAPDAATKNGKYYLFFPARDHEGIFRIGVAVSDSPMGPFAPEKSYIPGSYSIDPAVFVDTDDSAYLYFGGIWGGQLQCWERADGSASASADPQMNGLVFNKSKSGPQEPSGAGVPALCPRVGQLSDDMLTFVSPPRELQILAPETGEPLAADDHERRFFEAAWMHKYKGKYYFSYSTGDSHYLVYATGDSPWGPFTYQGRILEPVLGWTTHHSIVEFQGKWYLFYHDCELSKGVDHLRSVKVREIVYDEEDKIHLA
notes: full-length, 348 residues, no native signal peptide; alpha-factor secretion signal, C-terminal His6 tag kept; Pichia pastoris X-33 (pPICZalphaA)
A word on the Km: it is the concentration of substrate that gives half-maximal velocity. On to B1, for which the Km in data set [3] came to 4.05 mM.
